Measurements reported in publication PMC10804407, “Rombocin, a Short Stable Natural Nisin Variant, Displays Selective Antimicrobial Activity against Listeria monocytogenes and Employs a Dual Mode of Action to Kill Target Bacterial Strains” (ACS Synthetic Biology, 2024).
In brackets after ≈: the same amount, converted by molar mass.

Columns and labels:
[1] = Spot-on-lawn assay, peptide-LTA complex formation; format: binding, Lactococcus lactis; conditions: spot-on-lawn (LTA 1 mg/mL, 2 μL) and growth curves, L. lactis MG1363
Protocol: To evaluate the binding of peptide and lipid II or lipoteichoic acid (LTA), an overnight cultured L. lactis MG1363 was added to 0.8% GM17 (w/v, temperature 45 °C) at a final concentration of 0.1% (v/v), and then, the mixture was poured onto 10 mL plates. The binding of peptide and lipid II or LTA was further evaluated by spotting of purified lipid II (300 μM, 2 μL) or LTA (1 mg/mL, 2 μL) to the edge of the inhibition halo of antibiotics. Briefly, antimicrobials were loaded to the agar plate. After the antimicrobial solution drops had dried, lipid II or LTA was spotted to the edge of inhibition halo of antimicrobials. The plates were then incubated overnight at 30 °C after the drops had dried.

[2] = system: E. faecalis LMG16216 (VRE); format: cell-based, Enterococcus faecalis; conditions: LMG16216
Protocol: (§1) Each experiment was performed in triplicate.

[3] = system: L. lactis; test: Fluorescence microscopy assay of membrane integrity (SYTO 9 / propidium iodide); format: cell-based, Lactococcus lactis; conditions: 5× MIC, 15 min / 20 min (method), room temperature
Protocol: L. lactis was cultured until it reached an OD600 of 0.8 and then pelleted at 8000g for 5 min and washed three times in 0.7% NaCl. The cell density was normalized to an OD600 of 0.4 in 0.7% NaCl, and a concentration of 5-fold MIC value of each tested antibiotic was added to the cell suspension simultaneously with SYTO 9 and propidium iodide using the LIVE/DEAD Baclight Bacterial Viability Kit (Invitrogen). After incubation at room temperature for 20 min, the compounds were removed by washing the cells with 0.7% NaCl. Finally, the cell suspensions were loaded onto 1.5% agarose pads and analyzed with a DeltaVision Elite microscope (Applied Precision).

[4] = system: L. lactis; test: Potassium ion efflux assay (PBFI probe); format: cell-based, Lactococcus lactis; conditions: 5× MIC, 10 mM HEPES pH 7.2 with 0.5% glucose, 10 μM PBFI
Protocol: To perform the K^+ release assay, we used the K^+-specific fluorescent probe PBFI. L. lactis was cultured in GM17 until the OD600 reached 0.6, after which the cells were harvested (5000g, 5 min) and washed twice with 10 mM HEPES (pH 7.2) with 0.5% glucose. The cells were then resuspended in the same buffer containing 10 μM PBFI. Data were analyzed using a Varioskan LUX Multimode Microplate Reader; cells were excited at 346 nm, and the fluorescence emission was measured at 505 nm to establish a baseline signal before the addition of 5-fold MIC antibiotics, after which data were collected. Nisin was used as a positive control.

[5] = Growth curve-based lipid II/LTA binding assay; format: cell-based, Lactococcus lactis; conditions: L. lactis MG1363, 5 × MIC peptide, 2 µl lipid II, 6 hours, three replicates
Protocol: Screening the antibacterial activity of peptides by spot-on-lawn assay
To prepare the plates, an overnight culture of the strains was added to 0.8% LB agar or GM17agar (wt/vol) at 45 ℃ and mixed to a final concentration of 0.1% (vol/vol) before being poured onto the plates (10 ml each). Next, 5 µl of the precursor peptide and 1 µl of 1 mg/mL NisP were dropped onto the plates and left to dry before incubation. The plates were then incubated overnight at 37°C, except for L. lactis, which was incubated at 30°C.
Evaluation of (methyl)lanthionine formation
16 μL of phosphate-buffered saline (pH 7.4) was added to the samples followed by treatment with 2 μL of 5 mg/mL tris[2-carboxyethyl]phosphine for 30 min at room temperature. Next, 4.5 μL of 25 mg/mL N-ethylmaleimide was added to the samples, which were then incubated at room temperature for 2 h.
Subsequently, the samples were desalted using a C18 ZipTip (Millipore) according to the manufacturer’s instructions and subjected to MALDI-TOF MS analysis.
Growth curve and lipid II/LTA binding assay
Overnight cultures of L. lactis MG1363 were diluted to an OD 600 of 0.05 and added to a 96-well plate, which was incubated at 30°C. […] The growth curve was recorded over the following 6 hours using a microplate spectrophotometer under the same conditions, with three replicates used for each treatment.

[6] = system: Bacillus cereus CH-85; format: cell-based; conditions: CH-85
Protocol: as §1

[7] = system: L. lactis MG1363; format: cell-based, Lactococcus lactis; conditions: MG1363
Protocol: as §1

[8] = pH stability by residual antimicrobial activity; format: physicochemical; conditions: residual antimicrobial activity vs L. lactis 1363, agar well, triplicate
Protocol: To investigate the impact of proteolytic enzymes, pH, and temperature on the antimicrobial activity, a representative strain of L. lactis 1363 was utilized. For the proteolytic enzyme assay, 40 μL of peptide (1 mg/mL) was incubated with or without final concentrations of 1 mg/mL proteolytic enzymes at room temperature for 3 h, followed by an activity test in the agar well. To determine pH stability, the pH was adjusted to 2, 4, 7, and 10 using 1 M HCl or NaOH. The temperature stability was assessed by incubating the peptide at 22, 50, 70, and 90 °C for a specified duration. All experiments were performed in triplicate.
Overnight cultures of the test strains were inoculated at a final concentration of 0.1% (v/v) into melted LB agar at 45 °C and then poured onto plates. After solidification, 8 mm wells were created and filled with 40 μL of the lantibiotic solution (1 mg/mL). The lantibiotics were activated by adding 5 μL of NisP directly to the well. The plates were then incubated overnight at 30 °C, and the zone of inhibition was measured. Zone diameters were calculated by subtracting the area of the well (πr^2) from the area of the zone (πr^2) and reported in millimeters. To determine the peptide concentration, purified and lyophilized peptides were resuspended in 0.05% aqueous acetic acid solution and quantified by HPLC following the protocol described by Schmitt et al.[44] All experiments were performed in triplicate.

Compound: C=C1NC(=O)[C@H]([C@@H](C)CC)NC(=O)C(NC(=O)C(=CC)NC(=O)[C@@H](N)[C@@H](C)CC)CSC[C@@H](C(=O)NC2C(=O)N[C@@H](C)C(=O)NCC(=O)N[C@H](C(=O)N[C@H](C(=O)NC3C(=O)NCC(=O)N[C@@H](C(C)C)C(=O)N[C@@H]([C@@H](C)CC)C(=O)N[C@@H](CCSC)C(=O)NC(=CC)C(=O)N[C@H](C(=O)N[C@@H](CCSC)C(=O)NC4CSC[C@@H](C(=O)N[C@@H](CCCCN)C(=O)O)NC(=O)CNC(=O)[C@H](CC(N)=O)NC4=O)CSC3C)[C@@H](C)CC)CSC2C)NC(=O)[C@H](CC(C)C)NC1=O (stereo partly shown) [rombocin A]
- binding to lipoteichoic acid (LTA) [1]: utilizes electrostatic interactions to interact with the cell walls of target bacteria
- MIC [2]: 50 µg/mL (≈ 21 µM)
- membrane integrity (SYTO 9 / propidium iodide fluorescence) [3]: membrane disruption similar to nisin
- release of intracellular potassium ions (PBFI fluorescence) [4]: did not have this effect
- effect of added lipid II on activity (growth curves) [5]: reduced its activity
- MIC [6]: 25 µg/mL (≈ 10.5 µM)
- MIC [7]: 0,78 μg/mL
- retained activity ([8]; neutral pH, after 8 h of incubation): 70%
- reduction in activity ([8]; pH 2, 4, 7, and 10 (adjusted with 1 M HCl or NaOH), up to 5.5 h): less than 20%
- retained activity ([8]; pH 2 and 4, after 8 h of incubation): more than 80%
